According to ChEMBL document CHEMBL1201862, “PubChem BioAssay data set” (2004):
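All cell lines were grown in 96-well plates and treated with compound for 48 hours. GI50 marks 50% less growth.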 Calls of active or inactive are those of the source. Cut-off read from the data, not from the text of the source: active = GI50 up to about 1.1 µM and inactive = higher.

Experiments:
Assay in all cases: NCI-60 cell line screen, 48 h
KM12 = tested on: KM12
SNB-19 = tested on: SNB-19
MCF7 = tested on: MCF7
LOX IMVI = tested on: LOX IMVI
NCI-H522 = tested on: NCI-H522
SF-268 = tested on: SF-268
SNB-75 = tested on: SNB-75
PC-3 = tested on: PC-3
NCI/ADR-RES = tested on: NCI/ADR-RES
UO-31 = tested on: UO-31
OVCAR-8 = tested on: OVCAR-8
U-251 = tested on: U-251
DU-145 = tested on: DU-145
MDA-N = tested on: MDA-N
786-0 = tested on: 786-0
SK-MEL-28 = tested on: SK-MEL-28
SK-MEL-5 = tested on: SK-MEL-5
NCI-H23 = tested on: NCI-H23
MDA-MB-435 = tested on: MDA-MB-435
UACC-62 = tested on: UACC-62

Measured: GI50

Cc1cc(S(=O)(=O)Nc2nc(N)nc(N(C)C)n2)c(SC(C(=O)O)c2ccccc2)cc1Cl (stereo unspecified)
inactive: KM12 > 10 µM | SNB-19 > 10 µM | MCF7 > 10 µM | LOX IMVI > 10 µM | NCI-H522 > 10 µM | SF-268 > 10 µM | SNB-75 > 10 µM | PC-3 > 10 µM | NCI/ADR-RES > 10 µM | UO-31 > 10 µM | OVCAR-8 > 10 µM | U-251 > 10 µM | DU-145 > 10 µM | MDA-N > 10 µM | 786-0 > 10 µM | SK-MEL-28 > 10 µM | SK-MEL-5 > 10 µM | NCI-H23 > 10 µM

Clc1ccc(C2Nc3ccccc3C3=NCCN32)cc1 (stereo unspecified)
inactive: KM12 18.3 µM | SNB-19 27.9 µM | MCF7 22.3 µM | LOX IMVI 17.2 µM | SF-268 20.7 µM | MDA-MB-435 16.6 µM | PC-3 55.3 µM | NCI/ADR-RES 19.5 µM | UO-31 27.3 µM | OVCAR-8 18.3 µM | U-251 25.9 µM | DU-145 39.8 µM | MDA-N 17.4 µM | 786-0 18.5 µM | SK-MEL-28 18 µM | SK-MEL-5 15.7 µM | NCI-H23 19.5 µM | UACC-62 16.9 µM

CN(C)CS/C(N)=N\C(O)C(Cl)(Cl)Cl (stereo unspecified)
inactive: KM12 > 100 µM | SNB-19 > 100 µM | LOX IMVI > 100 µM | NCI-H522 > 100 µM | SF-268 > 100 µM | SNB-75 > 100 µM | MDA-MB-435 > 100 µM | PC-3 > 100 µM | NCI/ADR-RES > 100 µM | UO-31 > 100 µM | OVCAR-8 > 100 µM | U-251 > 100 µM | DU-145 > 100 µM | MDA-N > 100 µM | 786-0 > 100 µM | SK-MEL-28 > 100 µM | SK-MEL-5 > 100 µM | NCI-H23 > 100 µM | UACC-62 > 100 µM

CC1(C)C2CC(c3ccncc3)ON2C(C)(C)N1O (stereo unspecified)
inactive: KM12 > 100 µM | SNB-19 > 100 µM | MCF7 > 100 µM | LOX IMVI > 100 µM | SF-268 > 100 µM | SNB-75 > 100 µM | MDA-MB-435 > 100 µM | PC-3 > 100 µM | NCI/ADR-RES > 100 µM | UO-31 > 100 µM | OVCAR-8 > 100 µM | U-251 > 100 µM | DU-145 > 100 µM | MDA-N > 100 µM | 786-0 > 100 µM | SK-MEL-28 > 100 µM | SK-MEL-5 > 100 µM | NCI-H23 > 100 µM | UACC-62 > 100 µM

Cc1ccc(Sc2ccccc2C23OC(C)(C4C(=O)N(c5ccccc5)C(=O)C42)N(C)C3=O)cc1 (stereo unspecified)
inactive: KM12 > 100 µM | SNB-19 > 100 µM | LOX IMVI > 100 µM | NCI-H522 > 100 µM | SF-268 > 100 µM | SNB-75 > 100 µM | MDA-MB-435 > 100 µM | PC-3 > 100 µM | NCI/ADR-RES > 100 µM | UO-31 > 100 µM | OVCAR-8 > 100 µM | U-251 > 100 µM | DU-145 > 100 µM | MDA-N > 100 µM | 786-0 96.6 µM | SK-MEL-28 > 100 µM | SK-MEL-5 > 100 µM | NCI-H23 > 100 µM | UACC-62 88.5 µM

COc1cccc2cc(C(N)=O)c(=N)oc12
inactive: KM12 42.6 µM | SNB-19 82 µM | LOX IMVI 30.7 µM | SF-268 51.1 µM | SNB-75 63.2 µM | MDA-MB-435 42.3 µM | PC-3 65.3 µM | NCI/ADR-RES 57.1 µM | OVCAR-8 50 µM | U-251 81.5 µM | DU-145 92.5 µM | MDA-N 59.7 µM | 786-0 31.7 µM | SK-MEL-28 46.5 µM | SK-MEL-5 49.2 µM | NCI-H23 48.4 µM | UACC-62 31.3 µM

CC#CC(O)(C(=O)OC1CC2CCC(C1)N2C)C1CCCC1 (stereo unspecified)
inactive: KM12 > 100 µM | SNB-19 > 100 µM | MCF7 > 100 µM | LOX IMVI > 100 µM | SF-268 > 100 µM | SNB-75 > 100 µM | MDA-MB-435 > 100 µM | PC-3 > 100 µM | NCI/ADR-RES > 100 µM | UO-31 > 100 µM | OVCAR-8 > 100 µM | U-251 > 100 µM | DU-145 > 100 µM | MDA-N > 100 µM | 786-0 > 100 µM | SK-MEL-28 > 100 µM | SK-MEL-5 > 100 µM | NCI-H23 > 100 µM | UACC-62 > 100 µM

BrC(=C(c1ccc(OC2CCCCO2)cc1)c1ccc(OC2CCCCO2)cc1)c1ccccc1 (stereo unspecified)
inactive: KM12 > 100 µM | SNB-19 > 100 µM | MCF7 > 100 µM | LOX IMVI > 100 µM | SF-268 > 100 µM | SNB-75 > 100 µM | MDA-MB-435 > 100 µM | PC-3 > 100 µM | NCI/ADR-RES > 100 µM | UO-31 > 100 µM | OVCAR-8 > 100 µM | U-251 > 100 µM | DU-145 > 100 µM | MDA-N > 100 µM | 786-0 > 100 µM | SK-MEL-28 > 100 µM | NCI-H23 > 100 µM | UACC-62 > 100 µM

O=C1CC(O)c2c(Cl)sc(Cl)c21 (stereo unspecified)
inactive: KM12 3.9 µM | SNB-19 21.7 µM | MCF7 5.45 µM | LOX IMVI 2.08 µM | SF-268 3.66 µM | SNB-75 14.4 µM | MDA-MB-435 8.02 µM | PC-3 13.3 µM | NCI/ADR-RES 22.9 µM | UO-31 6.49 µM | OVCAR-8 4.07 µM | U-251 13.9 µM | DU-145 12.9 µM | MDA-N 9.33 µM | 786-0 4.14 µM | SK-MEL-28 6.46 µM | SK-MEL-5 17.1 µM | NCI-H23 15.3 µM | UACC-62 14.7 µM

CNc1nnc(CNc2ccc(-c3nnc(NC)n3N)cc2)n1N
inactive: KM12 > 100 µM | SNB-19 > 100 µM | MCF7 > 100 µM | LOX IMVI > 100 µM | SF-268 > 100 µM | SNB-75 > 100 µM | MDA-MB-435 > 100 µM | PC-3 > 100 µM | NCI/ADR-RES > 100 µM | UO-31 > 100 µM | OVCAR-8 > 100 µM | U-251 > 100 µM | DU-145 > 100 µM | MDA-N > 100 µM | 786-0 > 100 µM | SK-MEL-28 > 100 µM | SK-MEL-5 > 100 µM | NCI-H23 > 100 µM

CCNC(=S)NNC(=O)c1csc(NC(=S)NC2CCCCC2)n1
inactive: KM12 11.1 µM | SNB-19 37.5 µM | MCF7 4.69 µM | LOX IMVI 5.83 µM | SF-268 10.8 µM | MDA-MB-435 4.1 µM | PC-3 17.4 µM | NCI/ADR-RES 14.4 µM | UO-31 8.45 µM | OVCAR-8 10 µM | U-251 9.95 µM | DU-145 12.1 µM | MDA-N 2.9 µM | 786-0 6.52 µM | SK-MEL-5 2.79 µM | NCI-H23 22.8 µM | UACC-62 6.18 µM
